Laboratory results from the CheMixHub viscosity set.
Values joined by “and” are separate entries in the source; they are usually repeats but may differ in a detail not shown here. Equal entries are not always repeated.

Assay: xn = mol fraction of the nth substance listed

CCC(O)CO (stereo not given) + O
viscosity, 101 kPa
Settings	293.15 K	298.15 K	303.15 K	308.15 K	313.15 K	318.15 K	323.15 K
x1 = 0.005	1.087 mPa·s	0.964 mPa·s	0.865 mPa·s	0.783 mPa·s	–	–	–
x1 = 0.0099	–	–	0.935 mPa·s	0.838 mPa·s	0.756 mPa·s	0.687 mPa·s	0.628 mPa·s
x1 = 0.01	1.188 mPa·s	1.034 mPa·s	0.919 mPa·s	0.824 mPa·s	–	–	–
x1 = 0.015	1.285 mPa·s	1.129 mPa·s	0.978 mPa·s	–	–	–	–
x1 = 0.02	1.372 mPa·s	1.204 mPa·s	1.099 mPa·s and 1.052 mPa·s	0.976 mPa·s	0.874 mPa·s	0.789 mPa·s	0.716 mPa·s
x1 = 0.0299	–	–	1.268 mPa·s	1.117 mPa·s	0.993 mPa·s	0.89 mPa·s	0.802 mPa·s
x1 = 0.0401	–	–	1.459 mPa·s	1.275 mPa·s	1.126 mPa·s	1.002 mPa·s	0.9 mPa·s
x1 = 0.0496	–	–	1.639 mPa·s	1.422 mPa·s	1.247 mPa·s	1.104 mPa·s	0.986 mPa·s
x1 = 0.0599	–	–	1.856 mPa·s	1.599 mPa·s	1.394 mPa·s	1.229 mPa·s	1.092 mPa·s
x1 = 0.0701	–	–	2.073 mPa·s	1.776 mPa·s	1.54 mPa·s	1.351 mPa·s	1.193 mPa·s
x1 = 0.0799	–	–	2.279 mPa·s	1.944 mPa·s	1.679 mPa·s	1.467 mPa·s	1.292 mPa·s
x1 = 0.0899	–	–	2.493 mPa·s	2.12 mPa·s	1.823 mPa·s	1.587 mPa·s	1.395 mPa·s
x1 = 0.0999	–	3.41 mPa·s	2.736 mPa·s and 2.855 mPa·s	2.311 mPa·s and 2.445 mPa·s	1.98 mPa·s and 2.138 mPa·s	1.718 mPa·s	1.506 mPa·s
x1 = 0.2006	–	6.704 mPa·s	5.489 mPa·s	4.586 mPa·s	3.907 mPa·s	–	–
x1 = 0.3009	–	10.27 mPa·s	8.312 mPa·s	6.887 mPa·s	5.759 mPa·s	–	–
x1 = 0.4001	–	14.49 mPa·s	11.54 mPa·s	9.39 mPa·s	7.779 mPa·s	–	–
x1 = 0.5025	–	19.54 mPa·s	15.45 mPa·s	12.42 mPa·s	10.14 mPa·s	–	–
x1 = 0.5987	–	25.28 mPa·s	19.39 mPa·s	15.5 mPa·s	12.54 mPa·s	–	–
x1 = 0.702	–	31.76 mPa·s	24.06 mPa·s	18.94 mPa·s	15.12 mPa·s	–	–
x1 = 0.8038	–	38.27 mPa·s	28.82 mPa·s	22.48 mPa·s	17.7 mPa·s	–	–
x1 = 0.8972	–	45.12 mPa·s	33.44 mPa·s	25.72 mPa·s	20.14 mPa·s	–	–

Nc1ccccc1 + C1CCCCC1
Settings	viscosity
301.05 K, 101.32 kPa, x1 = 0.7073	1.9 mPa·s
301.92 K, 101 kPa, x1 = 0.238	1.083 mPa·s
302.2 K, 101 kPa, x1 = 0.592	1.621 mPa·s
302.46 K, 101 kPa, x1 = 0.745	1.893 mPa·s
302.5 K, 101 kPa, x1 = 0.63	1.651 mPa·s
302.66 K, 101 kPa, x1 = 0.71	1.798 mPa·s
302.76 K, 101 kPa, x1 = 0.337	1.185 mPa·s
303 K, 101 kPa, x1 = 0.442	1.643 mPa·s and 1.611 mPa·s
303.02 K, 101 kPa, x1 = 0.442	1.57 mPa·s
303.08 K, 101 kPa, x1 = 0.39	1.305 mPa·s
303.09 K, 101 kPa, x1 = 0.442	1.539 mPa·s
303.12 K, 101 kPa, x1 = 0.592	1.574 mPa·s
303.15 K, 101 kPa, x1 = 0.442	1.496 mPa·s
303.15 K, 101.32 kPa, x1 = 0.7073	1.79 mPa·s
303.22 K, 101 kPa, x1 = 0.442	1.458 mPa·s
303.26 K, 101 kPa, x1 = 0.745	1.847 mPa·s
303.35 K, 101 kPa, x1 = 0.442	1.419 mPa·s
303.39 K, 101 kPa, x1 = 0.39	1.275 mPa·s
303.58 K, 101 kPa, x1 = 0.492	1.434 mPa·s
303.61 K, 101 kPa, x1 = 0.442	1.386 mPa·s
303.68 K, 101 kPa, x1 = 0.41	1.31 mPa·s
303.76 K, 101 kPa, x1 = 0.442	1.366 mPa·s
303.9 K, 101 kPa, x1 = 0.442	1.353 mPa·s
303.92 K, 101 kPa, x1 = 0.39	1.238 mPa·s
304.07 K, 101 kPa, x1 = 0.592	1.531 mPa·s
304.09 K, 101 kPa, x1 = 0.745	1.808 mPa·s
304.1 K, 101 kPa, x1 = 0.442	1.335 mPa·s
304.25 K, 101 kPa, x1 = 0.71	1.731 mPa·s
304.32 K, 101 kPa, x1 = 0.543	1.452 mPa·s
304.38 K, 101 kPa, x1 = 0.442	1.32 mPa·s
304.39 K, 101 kPa, x1 = 0.337	1.109 mPa·s
304.42 K, 101 kPa, x1 = 0.39	1.215 mPa·s
304.51 K, 101 kPa, x1 = 0.523	1.41 mPa·s
304.53 K, 101 kPa, x1 = 0.492	1.373 mPa·s
304.56 K, 101 kPa, x1 = 0.63	1.546 mPa·s
304.58 K, 101 kPa, x1 = 0.442	1.302 mPa·s
304.59 K, 101 kPa, x1 = 0.41	1.244 mPa·s
304.64 K, 101 kPa, x1 = 0.462	1.334 mPa·s
304.75 K, 101.32 kPa, x1 = 0.5628	1.51 mPa·s
304.99 K, 101 kPa, x1 = 0.442	1.281 mPa·s
305.01 K, 101 kPa, x1 = 0.745	1.77 mPa·s
305.05 K, 101.32 kPa, x1 = 0.5628	1.48 mPa·s
305.17 K, 101 kPa, x1 = 0.71	1.693 mPa·s
305.24 K, 101 kPa, x1 = 0.442	1.268 mPa·s
305.41 K, 101 kPa, x1 = 0.39	1.169 mPa·s
305.51 K, 101 kPa, x1 = 0.592	1.466 mPa·s
305.83 K, 101 kPa, x1 = 0.745	1.737 mPa·s
305.91 K, 101 kPa, x1 = 0.442	1.236 mPa·s
306.15 K, 101.32 kPa, x1 = 0.7073	1.65 mPa·s
306.28 K, 101 kPa, x1 = 0.337	1.051 mPa·s
306.33 K, 101 kPa, x1 = 0.462	1.247 mPa·s
306.36 K, 101 kPa, x1 = 0.442	1.216 mPa·s
306.36 K, 101 kPa, x1 = 0.492	1.292 mPa·s
306.37 K, 101 kPa, x1 = 0.543	1.363 mPa·s
306.39 K, 101 kPa, x1 = 0.63	1.481 mPa·s
306.5 K, 101 kPa, x1 = 0.523	1.328 mPa·s
306.54 K, 101 kPa, x1 = 0.41	1.163 mPa·s
306.88 K, 101 kPa, x1 = 0.71	1.624 mPa·s
307.09 K, 101 kPa, x1 = 0.745	1.683 mPa·s
307.11 K, 101 kPa, x1 = 0.442	1.192 mPa·s
307.79 K, 101 kPa, x1 = 0.592	1.39 mPa·s
307.84 K, 101 kPa, x1 = 0.442	1.159 mPa·s
308.04 K, 101 kPa, x1 = 0.492	1.235 mPa·s
308.08 K, 101 kPa, x1 = 0.745	1.642 mPa·s
308.26 K, 101 kPa, x1 = 0.41	1.103 mPa·s
308.28 K, 101 kPa, x1 = 0.39	1.07 mPa·s
308.35 K, 101 kPa, x1 = 0.337	0.993 mPa·s
308.35 K, 101 kPa, x1 = 0.462	1.172 mPa·s
308.36 K, 101 kPa, x1 = 0.543	1.292 mPa·s
308.41 K, 101 kPa, x1 = 0.63	1.409 mPa·s
308.43 K, 101 kPa, x1 = 0.523	1.261 mPa·s
309.04 K, 101 kPa, x1 = 0.745	1.609 mPa·s
309.11 K, 101 kPa, x1 = 0.442	1.122 mPa·s
309.15 K, 101.32 kPa, x1 = 0.7073	1.53 mPa·s
309.4 K, 101 kPa, x1 = 0.592	1.324 mPa·s
309.69 K, 101 kPa, x1 = 0.71	1.52 mPa·s
309.88 K, 101 kPa, x1 = 0.492	1.169 mPa·s
310.04 K, 101 kPa, x1 = 0.745	1.57 mPa·s
310.08 K, 101 kPa, x1 = 0.543	1.234 mPa·s
310.21 K, 101 kPa, x1 = 0.337	0.953 mPa·s
310.23 K, 101 kPa, x1 = 0.41	1.047 mPa·s
310.32 K, 101 kPa, x1 = 0.442	1.09 mPa·s
310.32 K, 101 kPa, x1 = 0.462	1.117 mPa·s
310.41 K, 101 kPa, x1 = 0.523	1.2 mPa·s
310.49 K, 101 kPa, x1 = 0.63	1.345 mPa·s
311.23 K, 101 kPa, x1 = 0.745	1.534 mPa·s
311.28 K, 101 kPa, x1 = 0.592	1.258 mPa·s
311.35 K, 101 kPa, x1 = 0.39	0.995 mPa·s
311.37 K, 101 kPa, x1 = 0.442	1.063 mPa·s
311.64 K, 101 kPa, x1 = 0.492	1.12 mPa·s
311.89 K, 101 kPa, x1 = 0.523	1.16 mPa·s
311.98 K, 101 kPa, x1 = 0.71	1.439 mPa·s
311.98 K, 101 kPa, x1 = 0.745	1.501 mPa·s
312.01 K, 101 kPa, x1 = 0.462	1.067 mPa·s
312.07 K, 101 kPa, x1 = 0.41	1.004 mPa·s
312.11 K, 101 kPa, x1 = 0.337	0.919 mPa·s
312.18 K, 101 kPa, x1 = 0.63	1.289 mPa·s
312.19 K, 101 kPa, x1 = 0.543	1.174 mPa·s
312.2 K, 101 kPa, x1 = 0.442	1.042 mPa·s
